In patent publication US11697818B2, “Pyruvate-responsive biosensor, and construction method and use thereof” (priority 2020, dated 2023):

Test system: strain 168-PR containing the plasmid PHT01-P43D-GFP
Test: Specificity (orthogonality) of pyruvate biosensor towards inducing agents
Format: cell-based, Bacillus subtilis
Settings: 5 g of inducing agent added to the medium; strain 168-PR with PHT01-P43D-GFP
Experimental: 2. Detection method for Relative fluorescence intensity: The strain to be determined for the fluorescence intensity is streaked into LB solid medium containing chloramphenicol (5 μg/mL) in a plate. Single colonies are picked up and inoculated into LB liquid medium and incubated at 37° C. and 220 rpm for 12 h. Then the cell suspension is inoculated into 200 μL of LB liquid medium in a 96-well fluorescent microplate in an amount of 2% (V/V), and incubated at 37° C. and 900 rpm. The microplate is removed at different times, and the fluorescence intensity (excitation light: 488 nm, absorption light: 520 nm) and cell density (600 nm) are determined on the Cytation microplate reader (BioTek).

Structure (SMILES)	induction of the activity of the pyruvate biosensor
CC(C)S[C@@H]1O[C@H](CO)[C@H](O)[C@H](O)[C@H]1O [IPTG]	only pyruvate can significantly induce
CC(=O)O [acetic acid]	only pyruvate can significantly induce
CC(=O)C(C)O (stereo not shown) [acetoin]	only pyruvate can significantly induce
C[C@H](N)C(=O)O [alanine]	only pyruvate can significantly induce
O=C[C@@H](O)[C@H](O)[C@H](O)CO [arabinose]	only pyruvate can significantly induce
O=C(O)[C@@H](O)[C@@H](O)[C@H](O)[C@@H](O)C(=O)O [glucaric acid]	only pyruvate can significantly induce
CC(O)C(=O)O (stereo not shown) [lactic acid]	only pyruvate can significantly induce
OC[C@H]1O[C@@H](O[C@H]2[C@H](O)[C@@H](O)C(O)O[C@@H]2CO)[C@H](O)[C@@H](O)[C@H]1O (stereo partly shown) [lactose]	only pyruvate can significantly induce
O=C[C@H](O)[C@@H](O)[C@H](O)CO [xylose]	only pyruvate can significantly induce
O=C(O)CCC(=O)C(=O)O [α-ketoglutaric acid]	only pyruvate can significantly induce
